Results reported in ChEMBL document CHEMBL1201862, “PubChem BioAssay data set” (2004).
Calls of active or inactive are those of the source.

Tests used:
[1] = system: CHO-K1; test: (§1) Counterscreen for antagonists of the orexin 1 receptor (OX1R; HCRTR1): Homogeneous time resolved fluorescence (HTRF)-based cell-based dose response assay to identify antagonists of the parental CHO-K1 cell line. [Related pubchem assays (depositor defined):AID434989, AID435008, AID463079, AID485270, AID492963, AID492964, AID492965, AID493232, AID504699, AID504701]; type: functional; details: Cricetulus griseus
[2] = as §1, with “Fluorescence-based” for “Homogeneous time resolved fluorescence (HTRF)-based”, “cell-based high throughput” for “cell-based”, “CHO” for “CHO-K1”; type: functional
[3] = molecular target: T1, Orexin/Hypocretin receptor type 1 (Homo sapiens, UniProt O43613); test: Homogeneous Time Resolved Fluorescence (HTRF)-based cell-based high throughput dose response assay for antagonists of the orexin 1 receptor (OX1R; HCRTR1). [Related pubchem assays (depositor defined):AID434989, AID435008, AID463079, AID485270, AID492963, AID492964, AID492965, AID493232, AID504717, AID504718]; type: functional
T1 sequence (O43613 whole entry): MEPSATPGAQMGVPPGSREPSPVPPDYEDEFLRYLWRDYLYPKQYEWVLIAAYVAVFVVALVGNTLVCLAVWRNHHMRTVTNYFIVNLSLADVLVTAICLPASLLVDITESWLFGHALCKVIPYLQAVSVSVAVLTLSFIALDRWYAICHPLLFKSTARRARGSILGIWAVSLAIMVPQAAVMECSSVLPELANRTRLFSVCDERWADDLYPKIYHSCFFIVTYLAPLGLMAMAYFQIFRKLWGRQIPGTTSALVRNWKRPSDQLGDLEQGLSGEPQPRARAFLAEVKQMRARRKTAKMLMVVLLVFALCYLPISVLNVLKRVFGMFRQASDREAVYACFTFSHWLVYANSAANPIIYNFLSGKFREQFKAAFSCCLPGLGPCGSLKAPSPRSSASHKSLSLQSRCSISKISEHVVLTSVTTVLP

[4] = molecular target: T1, Orexin/Hypocretin receptor type 1; test: Fluorescence-based cell-based high throughput dose response assay for antagonists of the orexin 1 receptor (OX1R; HCRTR1). [Related pubchem assays (depositor defined):AID434989, AID435008, AID463079, AID485270, AID492963, AID492964, AID492965, AID493232, AID504717, AID504718]; type: functional
[5] = molecular target: T2, Orexin receptor type 2 (Homo sapiens, UniProt O43614); test: Counterscreen assay for antagonists of the orexin 1 receptor (OX1R; HCRTR1): Fluorescence-based cell-based dose response assay for antagonists of the orexin 2 receptor (OX2R; HCRTR2), run by assay provider.; type: functional
T2 sequence (O43614 whole entry): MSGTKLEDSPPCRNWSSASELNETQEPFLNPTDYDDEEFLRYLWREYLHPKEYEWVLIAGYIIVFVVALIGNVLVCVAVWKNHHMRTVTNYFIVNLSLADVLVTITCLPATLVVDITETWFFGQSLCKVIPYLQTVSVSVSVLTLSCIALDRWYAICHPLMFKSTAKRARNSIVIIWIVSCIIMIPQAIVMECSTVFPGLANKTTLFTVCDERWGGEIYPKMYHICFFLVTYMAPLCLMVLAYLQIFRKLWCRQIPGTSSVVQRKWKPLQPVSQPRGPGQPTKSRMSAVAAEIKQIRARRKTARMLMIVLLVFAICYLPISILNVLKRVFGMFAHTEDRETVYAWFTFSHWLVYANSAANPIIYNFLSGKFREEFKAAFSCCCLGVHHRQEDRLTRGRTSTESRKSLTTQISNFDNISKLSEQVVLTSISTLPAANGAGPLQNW

[6] = molecular target: T2, Orexin receptor type 2; test: Counterscreen assay for antagonists of the orexin 1 receptor (OX1R; HCRTR1): Homogeneous Time Resolved Fluorescence (HTRF)-based cell-based dose response assay for antagonists of the orexin 2 receptor (OX2R; HCRTR2), run by assay provider.; type: functional
[7] = molecular target: T3, Methionyl-tRNA synthetase, putative (Trypanosoma brucei brucei, UniProt Q38C91); type: functional, Trypanosoma brucei brucei strain 927/4 GUTat10.1
T3 sequence (Q38C91 whole entry): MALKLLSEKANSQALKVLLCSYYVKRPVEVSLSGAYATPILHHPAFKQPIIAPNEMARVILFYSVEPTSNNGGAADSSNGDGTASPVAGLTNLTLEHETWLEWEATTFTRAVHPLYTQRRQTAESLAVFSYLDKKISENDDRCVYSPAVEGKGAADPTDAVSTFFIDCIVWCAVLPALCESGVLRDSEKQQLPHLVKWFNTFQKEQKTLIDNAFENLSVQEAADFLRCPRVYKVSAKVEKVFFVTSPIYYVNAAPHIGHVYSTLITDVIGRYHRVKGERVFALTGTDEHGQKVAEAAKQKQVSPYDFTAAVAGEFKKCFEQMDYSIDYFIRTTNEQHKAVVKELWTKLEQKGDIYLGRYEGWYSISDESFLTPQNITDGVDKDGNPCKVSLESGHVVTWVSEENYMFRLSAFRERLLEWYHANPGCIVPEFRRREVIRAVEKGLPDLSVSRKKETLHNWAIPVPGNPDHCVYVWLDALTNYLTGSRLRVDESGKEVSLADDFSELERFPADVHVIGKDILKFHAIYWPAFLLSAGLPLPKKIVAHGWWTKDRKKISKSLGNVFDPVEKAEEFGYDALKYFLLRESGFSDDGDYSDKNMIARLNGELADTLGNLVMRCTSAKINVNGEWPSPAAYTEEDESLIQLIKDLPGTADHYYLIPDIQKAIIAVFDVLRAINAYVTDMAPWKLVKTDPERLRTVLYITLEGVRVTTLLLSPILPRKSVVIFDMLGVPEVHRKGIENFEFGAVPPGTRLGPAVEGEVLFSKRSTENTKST

[8] = Counterscreen for inhibitors of Trypanosoma brucei methionyl tRNA synthetase (MetRS): Luminescence-based cell-based high throughput dose response assay to identify compounds that are cytotoxic to Jurkat human T lymphocyte cells.; type: functional
[9] = molecular target: T3, Methionyl-tRNA synthetase, putative; type: functional, Trypanosoma brucei brucei strain 927/4 GUTat10.1; remark: listed apart in the source
[10] = molecular target: T4, Corticotropin-releasing factor receptor 2/Corticotropin-releasing factor-binding protein (Homo sapiens, UniProt P24387+Q13324); test: activators of CRF receptor 2 with binding protein – uHTS hits, confirmation (AID 602473); type: functional; details: read-out: EC50_Mean
T4 sequence (Q13324 whole entry): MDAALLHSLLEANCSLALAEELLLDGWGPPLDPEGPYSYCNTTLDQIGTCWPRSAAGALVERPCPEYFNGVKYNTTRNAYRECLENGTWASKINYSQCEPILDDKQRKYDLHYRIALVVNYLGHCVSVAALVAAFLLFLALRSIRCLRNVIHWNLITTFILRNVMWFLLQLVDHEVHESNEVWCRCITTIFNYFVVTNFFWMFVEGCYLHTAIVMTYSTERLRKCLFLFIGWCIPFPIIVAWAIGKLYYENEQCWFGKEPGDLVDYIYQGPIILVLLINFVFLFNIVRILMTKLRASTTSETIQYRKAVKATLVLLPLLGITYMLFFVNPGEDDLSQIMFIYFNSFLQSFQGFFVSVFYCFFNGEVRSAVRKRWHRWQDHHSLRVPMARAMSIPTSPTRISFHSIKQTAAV
T4 sequence (P24387 whole entry): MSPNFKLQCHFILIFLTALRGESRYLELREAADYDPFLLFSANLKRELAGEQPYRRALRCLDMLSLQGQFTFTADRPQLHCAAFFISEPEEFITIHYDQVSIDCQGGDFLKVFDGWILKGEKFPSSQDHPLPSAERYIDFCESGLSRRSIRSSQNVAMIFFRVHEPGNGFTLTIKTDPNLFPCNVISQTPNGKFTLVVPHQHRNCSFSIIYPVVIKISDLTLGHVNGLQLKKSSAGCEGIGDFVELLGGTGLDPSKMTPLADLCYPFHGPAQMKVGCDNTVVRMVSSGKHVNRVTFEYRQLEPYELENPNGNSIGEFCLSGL

[11] = molecular target: Long-chain-fatty-acid--AMP ligase FadD28 (Mycobacterium tuberculosis, UniProt P9WQ59); test: Fluorescence polarization aasay to screen for inhibitors that compete for the binding of FadD28 to a bisubstrate Measured in Biochemical System Using Plate Reader - 2147-01_Inhibitor_Dose_CherryPick_Activity.; type: functional, Mycobacterium tuberculosis H37Rv
Long-chain-fatty-acid--AMP ligase FadD28, sequence (P9WQ59 whole entry): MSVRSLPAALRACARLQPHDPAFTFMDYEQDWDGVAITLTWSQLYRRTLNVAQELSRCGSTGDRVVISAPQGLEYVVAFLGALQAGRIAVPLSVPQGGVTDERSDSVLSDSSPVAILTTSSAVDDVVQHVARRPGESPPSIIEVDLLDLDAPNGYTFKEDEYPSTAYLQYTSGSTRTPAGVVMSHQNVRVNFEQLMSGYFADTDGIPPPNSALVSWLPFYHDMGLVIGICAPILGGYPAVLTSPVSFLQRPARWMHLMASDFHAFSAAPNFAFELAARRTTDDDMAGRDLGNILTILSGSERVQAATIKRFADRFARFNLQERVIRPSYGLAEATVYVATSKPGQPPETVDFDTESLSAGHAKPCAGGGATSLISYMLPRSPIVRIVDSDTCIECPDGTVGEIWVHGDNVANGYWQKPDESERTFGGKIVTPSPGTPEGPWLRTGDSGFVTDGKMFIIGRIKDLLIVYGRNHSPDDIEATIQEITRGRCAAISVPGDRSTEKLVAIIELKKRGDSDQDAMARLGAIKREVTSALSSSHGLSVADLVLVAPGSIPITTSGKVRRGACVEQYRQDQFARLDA

[12] = molecular target: Protein Wnt-3a (Mus musculus, UniProt P27467); test: Wnt3a-driven reporter signaling inhibition, dose response, selectivity assay for Gli-SUFU antagonist project, Wnt-LIGHT cells, luminescence (AID 651570); type: functional; details: read-out: IC50_Mean;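 further: Wnt-LIGHT reporter cells stimulated with conditioned medium from Wnt3a-producing cells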
Protein Wnt-3a, sequence (P27467 whole entry): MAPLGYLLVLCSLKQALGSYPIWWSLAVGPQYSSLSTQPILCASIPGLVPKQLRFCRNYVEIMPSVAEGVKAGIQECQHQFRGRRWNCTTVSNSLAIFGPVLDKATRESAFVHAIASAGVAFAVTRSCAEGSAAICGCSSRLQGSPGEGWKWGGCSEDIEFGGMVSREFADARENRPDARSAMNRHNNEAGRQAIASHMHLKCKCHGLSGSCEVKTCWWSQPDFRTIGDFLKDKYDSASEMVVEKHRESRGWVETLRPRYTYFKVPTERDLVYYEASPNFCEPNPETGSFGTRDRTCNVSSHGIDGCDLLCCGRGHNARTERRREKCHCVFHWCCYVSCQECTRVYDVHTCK

[13] = molecular target: T5, Aryl hydrocarbon receptor (Homo sapiens, UniProt P35869); details: Potency;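 further: confirmatory quantitative high-throughput screen measuring activation of the AhR signaling pathway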
T5 sequence (P35869 whole entry): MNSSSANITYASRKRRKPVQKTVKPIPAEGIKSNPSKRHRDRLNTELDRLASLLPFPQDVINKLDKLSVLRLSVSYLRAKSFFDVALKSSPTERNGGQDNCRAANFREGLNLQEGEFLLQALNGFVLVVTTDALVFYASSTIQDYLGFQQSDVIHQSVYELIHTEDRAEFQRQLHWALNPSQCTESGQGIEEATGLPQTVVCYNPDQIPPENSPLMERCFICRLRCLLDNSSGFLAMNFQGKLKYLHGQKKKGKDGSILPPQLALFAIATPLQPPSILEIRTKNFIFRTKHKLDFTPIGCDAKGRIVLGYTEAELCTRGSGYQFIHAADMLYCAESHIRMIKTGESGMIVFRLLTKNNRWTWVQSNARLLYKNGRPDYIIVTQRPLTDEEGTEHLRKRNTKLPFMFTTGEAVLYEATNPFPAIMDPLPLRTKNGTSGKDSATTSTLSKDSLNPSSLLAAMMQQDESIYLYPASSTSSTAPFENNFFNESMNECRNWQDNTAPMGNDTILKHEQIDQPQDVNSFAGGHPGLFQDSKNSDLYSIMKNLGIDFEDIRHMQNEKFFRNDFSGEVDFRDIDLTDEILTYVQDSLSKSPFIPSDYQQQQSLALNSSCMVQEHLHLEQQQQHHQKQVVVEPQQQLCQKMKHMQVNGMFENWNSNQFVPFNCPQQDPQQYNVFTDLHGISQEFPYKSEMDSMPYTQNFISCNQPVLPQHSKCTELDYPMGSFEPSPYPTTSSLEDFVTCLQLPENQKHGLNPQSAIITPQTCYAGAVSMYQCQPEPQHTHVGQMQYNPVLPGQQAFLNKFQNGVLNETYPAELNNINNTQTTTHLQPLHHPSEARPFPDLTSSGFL

With `COC(=O)[C@H](Cc1c[nH]c2ccccc12)NC(=O)CCCc1c[nH]c2ccccc12` the IC50 [1] was > 66.2 µM (inactive), the IC50 [2] was 17.4 µM (inactive) and the IC50 [3] was 15.3 µM (inactive). For the same compound, the IC50 [4] was 9.04 µM (active), the IC50 [5] was 17.2 µM (inactive) and the IC50 [6] was 6.41 µM (active).

For `O=C(Cc1ccc(Nc2nc3cc(Br)ccc3[nH]2)cc1)NCCc1cccs1`, the IC50 [7] was 0.163 µM (active), the IC50 [8] was 27.8 µM (inactive) and the IC50 [9] was 0.286 µM (active).

In the case of `O=C1N=C(S)SC1=Cc1ccc(N(CCCl)CCCl)cc1`, the EC50 [10] is reported as 5.45 µM (active) and the AC50 [11] is reported as 66.7 µM (active).

For `NC(=O)c1ccccc1OCC(=O)N1CCC(Cc2ccccc2)CC1`, the IC50 [12] was 3.28 µM (active).

In the case of `Cc1ccc2nc(Nc3ccccc3)c(/C=N/O)c(=O)n2c1`, the IC50 [1] is reported as > 66.3 µM (inactive), the IC50 [2] is reported as > 49.8 µM (inactive) and the IC50 [3] is reported as 5.11 µM (active). The IC50 [4] was 9.96 µM (active), the IC50 [5] was 32.5 µM (inactive) and the IC50 [6] was > 50 µM (inactive).

For `COc1ccc(CN2CCC(C(=O)Nc3ccc(Oc4cccnc4)cc3)CC2)cc1`, the AC50 [11] was > 100 µM (inactive).

With `CC1=C(C(=O)Nc2ccccc2)SCCO1` [CARBOXIN] the AC50 [13] was 50.1 µM (inconclusive).
